Measured values: the supplement of paper PMC12076712

Legend:
Assay in all cases: pIC50, kinobeads binding competition
Details in all cases: cell material: Jurkat lysate
[1] = target: UniProt Q13233
[2] = target: T1, ZAP70 (UniProt P43403)
T1 sequence (whole entry): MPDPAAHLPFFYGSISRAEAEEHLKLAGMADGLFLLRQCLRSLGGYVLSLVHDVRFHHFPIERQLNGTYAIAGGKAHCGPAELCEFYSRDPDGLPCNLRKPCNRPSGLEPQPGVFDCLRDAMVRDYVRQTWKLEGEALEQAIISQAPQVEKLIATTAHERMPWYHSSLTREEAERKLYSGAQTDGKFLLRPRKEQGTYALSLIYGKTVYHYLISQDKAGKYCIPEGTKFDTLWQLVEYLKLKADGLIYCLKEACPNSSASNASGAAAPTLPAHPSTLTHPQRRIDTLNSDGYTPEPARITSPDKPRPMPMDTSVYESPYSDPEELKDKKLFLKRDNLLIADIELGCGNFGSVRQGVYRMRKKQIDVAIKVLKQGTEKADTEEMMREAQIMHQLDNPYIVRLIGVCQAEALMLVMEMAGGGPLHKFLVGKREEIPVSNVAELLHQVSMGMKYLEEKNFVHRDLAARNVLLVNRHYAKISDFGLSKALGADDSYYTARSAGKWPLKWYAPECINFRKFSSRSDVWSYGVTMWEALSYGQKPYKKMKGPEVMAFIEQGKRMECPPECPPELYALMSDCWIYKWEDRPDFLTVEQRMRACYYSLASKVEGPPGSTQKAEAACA

[3] = target: DDR1 (UniProt Q08345)
[4] = target: T2, TTK (UniProt P33981)
T2 sequence (whole entry): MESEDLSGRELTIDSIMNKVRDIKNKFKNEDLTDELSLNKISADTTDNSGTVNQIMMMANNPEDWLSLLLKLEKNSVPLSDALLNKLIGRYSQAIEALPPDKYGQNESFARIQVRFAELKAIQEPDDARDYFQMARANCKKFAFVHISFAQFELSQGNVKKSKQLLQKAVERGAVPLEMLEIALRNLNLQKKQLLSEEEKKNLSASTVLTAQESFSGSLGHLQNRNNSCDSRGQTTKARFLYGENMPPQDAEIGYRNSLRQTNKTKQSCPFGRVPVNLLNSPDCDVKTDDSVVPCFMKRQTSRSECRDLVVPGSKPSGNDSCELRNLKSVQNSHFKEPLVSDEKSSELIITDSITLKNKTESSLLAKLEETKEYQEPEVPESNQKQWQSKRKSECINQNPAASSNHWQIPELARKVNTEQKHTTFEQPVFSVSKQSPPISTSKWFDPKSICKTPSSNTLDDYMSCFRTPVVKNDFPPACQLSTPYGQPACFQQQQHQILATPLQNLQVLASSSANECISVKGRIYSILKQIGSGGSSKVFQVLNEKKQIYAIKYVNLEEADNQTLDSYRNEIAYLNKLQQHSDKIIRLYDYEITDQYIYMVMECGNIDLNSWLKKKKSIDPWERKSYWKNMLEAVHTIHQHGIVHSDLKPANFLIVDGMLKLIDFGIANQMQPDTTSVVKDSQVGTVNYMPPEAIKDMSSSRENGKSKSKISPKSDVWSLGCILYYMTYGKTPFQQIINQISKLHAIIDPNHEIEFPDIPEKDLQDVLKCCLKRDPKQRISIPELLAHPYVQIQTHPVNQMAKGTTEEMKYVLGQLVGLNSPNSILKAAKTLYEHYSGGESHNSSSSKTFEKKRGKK

[5] = target: CLK1 (UniProt P49759)
[6] = target: UniProt P68400
[7] = target: T3, SNRK (UniProt Q9NRH2)
T3 sequence (whole entry): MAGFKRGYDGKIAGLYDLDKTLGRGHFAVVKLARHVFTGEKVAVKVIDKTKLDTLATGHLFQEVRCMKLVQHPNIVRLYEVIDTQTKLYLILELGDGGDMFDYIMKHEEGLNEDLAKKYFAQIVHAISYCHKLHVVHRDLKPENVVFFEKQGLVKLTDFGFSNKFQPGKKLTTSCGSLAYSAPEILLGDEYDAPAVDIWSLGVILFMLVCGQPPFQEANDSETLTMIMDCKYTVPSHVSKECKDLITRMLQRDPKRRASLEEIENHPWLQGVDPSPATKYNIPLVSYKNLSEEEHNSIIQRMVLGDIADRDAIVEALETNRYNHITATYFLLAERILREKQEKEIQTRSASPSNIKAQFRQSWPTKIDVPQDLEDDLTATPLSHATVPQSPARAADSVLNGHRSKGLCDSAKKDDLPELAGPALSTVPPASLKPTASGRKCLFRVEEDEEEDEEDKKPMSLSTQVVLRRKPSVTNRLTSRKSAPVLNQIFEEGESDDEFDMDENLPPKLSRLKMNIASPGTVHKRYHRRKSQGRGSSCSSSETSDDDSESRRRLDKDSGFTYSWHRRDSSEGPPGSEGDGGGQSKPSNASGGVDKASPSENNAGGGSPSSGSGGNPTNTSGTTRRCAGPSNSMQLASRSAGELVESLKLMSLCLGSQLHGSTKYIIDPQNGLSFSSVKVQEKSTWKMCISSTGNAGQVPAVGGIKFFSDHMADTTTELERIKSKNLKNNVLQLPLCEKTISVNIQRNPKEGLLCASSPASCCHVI

[8] = target: T4, RIOK1 (UniProt Q9BRS2)
T4 sequence (whole entry): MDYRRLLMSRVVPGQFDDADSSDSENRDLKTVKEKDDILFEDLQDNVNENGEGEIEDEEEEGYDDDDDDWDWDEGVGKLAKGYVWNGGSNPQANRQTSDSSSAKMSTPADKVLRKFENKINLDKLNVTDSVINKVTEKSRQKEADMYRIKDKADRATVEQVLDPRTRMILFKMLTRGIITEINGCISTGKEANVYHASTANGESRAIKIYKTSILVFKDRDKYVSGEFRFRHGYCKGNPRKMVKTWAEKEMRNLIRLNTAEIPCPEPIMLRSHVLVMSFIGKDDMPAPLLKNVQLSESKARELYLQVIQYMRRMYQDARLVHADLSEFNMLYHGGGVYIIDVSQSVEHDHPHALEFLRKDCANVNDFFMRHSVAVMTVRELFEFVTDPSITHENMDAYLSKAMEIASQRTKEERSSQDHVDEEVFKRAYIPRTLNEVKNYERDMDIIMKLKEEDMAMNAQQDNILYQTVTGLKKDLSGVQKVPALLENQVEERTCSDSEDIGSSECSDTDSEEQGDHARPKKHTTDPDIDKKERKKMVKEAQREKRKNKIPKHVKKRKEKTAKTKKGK

Sequence of UniProt Q13233 (Q13233 whole entry): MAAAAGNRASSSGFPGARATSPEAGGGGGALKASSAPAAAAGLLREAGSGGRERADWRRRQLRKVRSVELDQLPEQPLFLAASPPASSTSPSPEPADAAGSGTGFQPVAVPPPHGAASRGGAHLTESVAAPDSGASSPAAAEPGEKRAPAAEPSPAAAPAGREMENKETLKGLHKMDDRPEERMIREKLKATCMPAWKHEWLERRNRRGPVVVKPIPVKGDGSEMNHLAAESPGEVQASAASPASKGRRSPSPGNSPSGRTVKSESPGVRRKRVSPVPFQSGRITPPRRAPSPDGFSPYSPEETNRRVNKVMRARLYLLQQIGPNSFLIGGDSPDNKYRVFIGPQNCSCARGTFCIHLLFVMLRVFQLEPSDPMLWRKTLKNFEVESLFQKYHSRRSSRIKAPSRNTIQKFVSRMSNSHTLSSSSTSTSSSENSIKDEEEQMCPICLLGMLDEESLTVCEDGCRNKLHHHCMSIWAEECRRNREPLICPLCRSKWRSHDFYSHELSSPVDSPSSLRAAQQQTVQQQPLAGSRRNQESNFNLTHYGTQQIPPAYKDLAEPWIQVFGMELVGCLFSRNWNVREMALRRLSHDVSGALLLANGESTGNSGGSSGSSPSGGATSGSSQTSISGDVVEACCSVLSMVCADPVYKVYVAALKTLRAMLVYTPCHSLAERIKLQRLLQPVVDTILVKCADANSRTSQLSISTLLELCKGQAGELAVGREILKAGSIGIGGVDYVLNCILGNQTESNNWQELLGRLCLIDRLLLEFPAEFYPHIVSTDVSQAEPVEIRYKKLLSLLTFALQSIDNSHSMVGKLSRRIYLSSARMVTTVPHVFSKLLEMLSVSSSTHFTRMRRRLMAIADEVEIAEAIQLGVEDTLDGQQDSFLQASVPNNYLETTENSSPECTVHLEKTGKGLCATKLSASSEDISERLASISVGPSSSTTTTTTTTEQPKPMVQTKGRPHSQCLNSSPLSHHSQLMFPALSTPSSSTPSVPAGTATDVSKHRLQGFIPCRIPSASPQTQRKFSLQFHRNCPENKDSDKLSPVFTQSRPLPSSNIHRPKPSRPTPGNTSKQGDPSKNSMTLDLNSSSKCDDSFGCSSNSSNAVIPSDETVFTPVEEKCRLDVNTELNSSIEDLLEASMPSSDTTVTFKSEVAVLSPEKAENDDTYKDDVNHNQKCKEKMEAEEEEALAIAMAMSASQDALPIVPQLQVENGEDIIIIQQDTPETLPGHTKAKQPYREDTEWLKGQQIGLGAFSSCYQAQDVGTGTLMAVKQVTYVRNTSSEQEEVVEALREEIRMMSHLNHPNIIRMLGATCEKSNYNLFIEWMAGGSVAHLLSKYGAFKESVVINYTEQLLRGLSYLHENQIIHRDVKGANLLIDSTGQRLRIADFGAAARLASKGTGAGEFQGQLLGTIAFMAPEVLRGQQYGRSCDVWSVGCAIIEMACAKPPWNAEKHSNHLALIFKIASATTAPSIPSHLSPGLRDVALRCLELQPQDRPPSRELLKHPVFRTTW
Sequence of CLK1 (P49759 whole entry, looked up): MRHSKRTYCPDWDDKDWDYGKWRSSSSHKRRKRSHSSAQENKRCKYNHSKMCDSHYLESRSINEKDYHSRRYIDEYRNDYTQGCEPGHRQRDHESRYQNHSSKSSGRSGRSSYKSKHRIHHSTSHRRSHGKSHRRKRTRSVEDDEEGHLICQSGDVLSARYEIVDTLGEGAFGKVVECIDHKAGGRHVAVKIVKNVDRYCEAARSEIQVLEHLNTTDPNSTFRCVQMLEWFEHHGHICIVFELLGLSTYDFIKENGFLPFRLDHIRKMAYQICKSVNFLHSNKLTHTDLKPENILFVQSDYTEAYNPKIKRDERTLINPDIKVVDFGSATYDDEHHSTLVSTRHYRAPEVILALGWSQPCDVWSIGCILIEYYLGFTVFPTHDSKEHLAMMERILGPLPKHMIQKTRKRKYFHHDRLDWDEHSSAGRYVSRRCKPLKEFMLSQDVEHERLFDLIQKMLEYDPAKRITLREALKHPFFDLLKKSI
Sequence of UniProt P68400 (P68400 whole entry, looked up): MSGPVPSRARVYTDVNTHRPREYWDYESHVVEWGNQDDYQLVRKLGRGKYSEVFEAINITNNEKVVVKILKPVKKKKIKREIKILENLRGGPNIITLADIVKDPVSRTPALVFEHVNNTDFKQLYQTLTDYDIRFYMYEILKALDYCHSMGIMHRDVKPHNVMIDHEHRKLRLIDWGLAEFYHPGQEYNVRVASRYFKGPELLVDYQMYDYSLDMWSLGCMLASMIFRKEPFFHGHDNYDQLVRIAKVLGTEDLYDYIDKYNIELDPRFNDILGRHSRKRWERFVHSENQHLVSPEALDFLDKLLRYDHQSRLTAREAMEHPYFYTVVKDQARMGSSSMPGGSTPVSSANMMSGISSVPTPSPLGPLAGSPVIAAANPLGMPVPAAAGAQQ
Sequence of DDR1 (Q08345 whole entry): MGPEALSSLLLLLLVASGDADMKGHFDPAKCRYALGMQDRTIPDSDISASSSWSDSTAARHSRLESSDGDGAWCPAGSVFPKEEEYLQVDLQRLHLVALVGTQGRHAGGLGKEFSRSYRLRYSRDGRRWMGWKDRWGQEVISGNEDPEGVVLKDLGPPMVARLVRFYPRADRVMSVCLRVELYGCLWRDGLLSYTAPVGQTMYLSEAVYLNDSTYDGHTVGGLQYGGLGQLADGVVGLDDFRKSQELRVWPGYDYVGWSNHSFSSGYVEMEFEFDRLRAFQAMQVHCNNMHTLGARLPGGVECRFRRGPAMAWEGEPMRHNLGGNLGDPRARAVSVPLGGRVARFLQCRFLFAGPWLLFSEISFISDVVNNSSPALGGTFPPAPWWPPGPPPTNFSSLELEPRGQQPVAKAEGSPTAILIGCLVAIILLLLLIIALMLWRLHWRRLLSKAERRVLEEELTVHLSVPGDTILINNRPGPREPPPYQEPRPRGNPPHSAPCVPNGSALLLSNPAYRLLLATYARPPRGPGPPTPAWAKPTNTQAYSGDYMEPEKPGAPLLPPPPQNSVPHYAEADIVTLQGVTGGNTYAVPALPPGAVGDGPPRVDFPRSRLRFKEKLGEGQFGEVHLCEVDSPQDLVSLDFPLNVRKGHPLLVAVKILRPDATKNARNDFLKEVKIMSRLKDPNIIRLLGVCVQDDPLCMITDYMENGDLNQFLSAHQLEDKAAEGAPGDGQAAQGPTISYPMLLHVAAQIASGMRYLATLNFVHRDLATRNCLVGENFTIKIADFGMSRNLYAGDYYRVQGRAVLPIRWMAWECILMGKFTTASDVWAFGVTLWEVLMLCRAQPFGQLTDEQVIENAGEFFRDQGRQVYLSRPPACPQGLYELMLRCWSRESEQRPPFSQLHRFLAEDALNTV

- pIC50 [1]: < 4.52
- pIC50 [2]: < 4.52
- pIC50 [3]: < 4.52
- pIC50 [4]: < 4.52
- pIC50 [5]: 5.13
- pIC50 [6]: < 4.52
- pIC50 [7]: < 4.52
- pIC50 [8]: < 4.52
SMILES: CCc1cnn2c(NCc3ccc[n+]([O-])c3)cc(N3CCCC[C@H]3CCO)nc12 [dinaciclib]
